Reference: the supplement of paper PMC12137928
Where a name gives a salt, the structure may show the parent alone.

Test system: HCT116
Conditions: 72 h
Summary of the method: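 HCT116 cells went into 1536-well plates at 250 per well. CellTiter-Glo luminescence was expressed relative to vehicle (0%) and positive control (-100%) and then pattern-corrected. Both IC50 and maximal efficacy were taken from four-parameter Hill fits.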

| Compound | IC50 cell viability (ICRF193 0 nM) [µM] | IC50 cell viability (ICRF193 200 nM) [µM] |
| --- | --- | --- |
| N[C@@H](Cc1ccc(N(CCCl)CCCl)cc1)C(=O)O [Melphalan] | > 45.8 | > 45.8 |
| CCN(CC)CCOCCOC(=O)C1(c2ccccc2)CCCC1 [Carbetapentane] | > 45.8 | > 45.8 |
| CC(C)C[C@@H](N)C(=O)O [D-Leucine] | > 45.8 | > 45.8 |
| CCOC(=O)c1cccc(N)c1 [Ethyl 3-aminobenzoate methanesulfonic acid salt] | > 45.8 | > 45.8 |
| CC1=Nc2ccc(Cl)cc2S(=O)(=O)N1 [Diazoxide] | > 45.8 | > 45.8 |
| CCC(C)(C)c1ccc(CC(C)CN2C[C@@H](C)O[C@@H](C)C2)cc1 (stereo partly specified) [Amorolfine hydrochloride] | > 45.8 | > 45.8 |
| CCOC(=O)c1ncn2c1CN(C)C(=O)c1c(I)cccc1-2 [Iomazenil] | > 45.8 | > 45.8 |
| CC(C)NC(C)C [Diisopropylamine] | > 45.8 | > 45.8 |
| NC(=Nc1ccccc1)Nc1ccccc1 [1,3-Diphenylguanidine] | > 45.8 | > 45.8 |
| C[N+](C)(C)CC(=O)O [Betaine] | > 45.8 | > 45.8 |
| CC1=C(C(=O)O)N2C(=O)[C@@H](NC(=O)[C@H](N)C3=CCC=CC3)[C@H]2SC1 [CEPHRADINE] | > 45.8 | > 45.8 |
| CN1CCN(C(c2ccccc2)c2ccccc2)CC1 [Cyclizine hydrochloride] | > 45.8 | > 45.8 |
| C[C@H](N)[C@H](O)c1ccc(O)c(O)c1 [Levonordefrin] | > 45.8 | > 45.8 |
| CCN1CC(CCN2CCOCC2)C(c2ccccc2)(c2ccccc2)C1=O (stereo unspecified) [Doxapram hydrochloride] | > 45.8 | > 45.8 |
| O=c1ccc2cc(O[C@@H]3O[C@H](CO)[C@@H](O)[C@H](O)[C@H]3O)c(O)cc2o1 [Esculin hydrate] | > 45.8 | > 45.8 |
| COC(=O)[C@H]1[C@@H](OC(=O)c2ccccc2)C[C@@H]2CC[C@H]1N2C [(-)-Cocaine hydrochloride] | > 45.8 | > 45.8 |

| Compound | IC50 cell viability (ICRF193 0 nM) [µM] | IC50 cell viability (ICRF193 200 nM) [µM] |
| --- | --- | --- |
| CC(C)NCC(O)c1ccccc1Cl (stereo unspecified) [Clorprenaline hydrochloride] | > 45.8 | > 45.8 |
| CCN1CCCC1CNC(=O)c1cc(S(=O)(=O)CC)c(N)cc1OC (stereo unspecified) [Amisulpride] | > 45.8 | > 45.8 |
| CN1CCC[C@@H]1Cc1c[nH]c2ccc(CCS(=O)(=O)c3ccccc3)cc12 [Eletriptan] | > 45.8 | > 45.8 |
| CC(C)(C)C(=O)C(Oc1ccc(Cl)cc1)n1ccnc1 (stereo unspecified) [Climbazole] | > 45.8 | > 45.8 |
| Nc1c(Br)cc(Br)cc1CN[C@H]1CC[C@H](O)CC1 [Ambroxol hydrochloride] | > 45.8 | > 45.8 |
| CCOC(=O)c1cnc2cc(OCC(C)C)c(OCC(C)C)cc2c1O [Buquinolate] | > 45.8 | > 45.8 |
| O=[N+]([O-])O[C@@H]1CO[C@H]2[C@@H]1OC[C@@H]2O [Isosorbide mononitrate] | > 45.8 | > 45.8 |
| C[C@]12CC[C@@H]3c4ccc(OC(=O)N(CCCl)CCCl)cc4CC[C@H]3[C@@H]1CC[C@@H]2O [Estramustine] | > 45.8 | > 45.8 |
| C=C[C@H]1CN2CC[C@H]1C[C@H]2[C@H](O)c1ccnc2ccccc12 [CINCHONIDINE] | > 45.8 | > 45.8 |
| CN1CCN(C(=O)O[C@H]2c3nccnc3C(=O)N2c2ccc(Cl)cn2)CC1 [Eszopiclone] | > 45.8 | > 45.8 |
| COc1ccc(-c2cc(C(F)F)nn2-c2ccc(S(N)(=O)=O)cc2)cc1F [Deracoxib] | > 45.8 | > 45.8 |
| NC(=O)c1ccc([N+](=O)[O-])cc1Cl [2-Chloro-4-nitrobenzamide] | > 45.8 | > 45.8 |
| C[C@]12CC[C@@H]3c4ccc(OC(=O)c5ccccc5)cc4CC[C@H]3[C@@H]1CC[C@@H]2O [ESTRADIOL BENZOATE] | > 45.8 | > 45.8 |
| Cc1nnc(SCC2=C(C(=O)O)N3C(=O)[C@@H](NC(=O)Cn4cnnn4)[C@H]3SC2)s1 [Cefazolin] | > 45.8 | > 45.8 |
| CCCCCCCCCCCCCCCCCCCCCCO [Docosanol] | > 45.8 | > 45.8 |
| CC(=O)OCC1=C(C(=O)O)N2C(=O)[C@@H](NC(=O)CC#N)[C@H]2SC1 [Cefacetrile] | > 45.8 | > 45.8 |

The next lines start with the values.

| IC50 cell viability (ICRF193 0 nM) [µM] | IC50 cell viability (ICRF193 200 nM) [µM] | Compound |
| --- | --- | --- |
| > 45.8 | > 45.8 | CN1CCCN=C1/C=C/c1cccc(O)c1 [OXANTEL PAMOATE] |
| > 45.8 | > 45.8 | O=C(O)c1cn(-c2ccc(F)cc2)c2cc(N3CCNCC3)c(F)cc2c1=O [Sarafloxacin hydrochloride] |
| > 45.8 | > 45.8 | C#C[C@]1(O)CC[C@H]2[C@@H]3CCC4=C(CCC(=O)C4)[C@H]3CC[C@@]21C [NORETHYNODREL] |
| > 45.8 | > 45.8 | CC(OC(=O)OC1CCCCC1)OC(=O)C1=C(CSc2nnnn2CCN(C)C)CS[C@@H]2[C@H](NC(=O)Cc3csc(N)n3)C(=O)N12 (stereo partly specified) [SCE 2174] |
| > 45.8 | > 45.8 | c1ccc2sc(SN3CCOCC3)nc2c1 [N-Oxydiethylenebenzothiazole-2-sulfenamide] |
| > 45.8 | > 45.8 | CC(C)(C(=O)O)c1ccc(C(O)CCCN2CCC(C(O)(c3ccccc3)c3ccccc3)CC2)cc1 (stereo unspecified) [Fexofenadine hydrochloride] |
| > 45.8 | > 45.8 | Cc1oc(=O)oc1CN1CCN(c2cc3c(cc2F)c(=O)c(C(=O)O)c2n3C(C)S2)CC1 (stereo unspecified) [Prulifloxacin] |
| > 45.8 | > 45.8 | NC(=O)c1nc(F)cnc1O [Favipiravir] |
| > 45.8 | > 45.8 | CNC1(C)C2CCC(C2)C1(C)C (stereo unspecified) [Mecamylamine] |
| > 45.8 | > 45.8 | CC[C@H]1OC(=O)C[C@@H](O)[C@H](C)[C@@H](O[C@@H]2O[C@H](C)[C@@H](O)[C@H](N(C)C)[C@H]2O)[C@@H](CCN2CCCCC2)C[C@@H](C)C(=O)/C=C/C(C)=C/[C@@H]1CN1CCCCC1 [Tildipirosin] |
| > 45.8 | > 45.8 | CC1(C)OC[C@@H](COC(=O)CCc2ccc(OC[C@@H](O)CNCCNC(=O)N3CCOCC3)cc2)O1 [Landiolol hydrochloride] |
| > 45.8 | > 45.8 | COC(=O)[C@@H](N)CS [L-Cysteine methyl ester hydrochloride] |
| > 45.8 | > 45.8 | COc1ccccc1OC(=O)Oc1ccccc1OC [Guaiacol carbonate] |
| > 45.8 | > 45.8 | CC(=O)Nc1c(I)c(C(=O)O)c(I)c(N(C)C(C)=O)c1I [Metrizoate sodium] |
| > 45.8 | > 45.8 | CCC1(c2ccccc2)C(=O)NCNC1=O [Primidone] |
| > 45.8 | > 45.8 | Cc1cn[nH]c1 [Fomepizole] |

| IC50 cell viability (ICRF193 0 nM) [µM] | IC50 cell viability (ICRF193 200 nM) [µM] | Compound |
| --- | --- | --- |
| > 45.8 | > 45.8 | C[N+]1(C)[C@@H]2C[C@@H](OC(=O)C(O)(c3cccs3)c3cccs3)C[C@H]1[C@@H]1O[C@@H]12 [Tiotropium (Bromide)] |
| > 45.8 | > 45.8 | Cc1oc(=O)oc1COC(=O)[C@@H]1N2C(=O)[C@@H](NC(=O)[C@H](N)c3ccccc3)[C@H]2SC1(C)C [Lenampicillin hydrochloride] |
| > 45.8 | > 45.8 | CC(C)NC(=N)NC(=N)Nc1ccc(Cl)cc1 [Proguanil hydrochloride] |
| > 45.8 | > 45.8 | CCCCCCCC(=O)OCC(COC(=O)CCCCCCC)OC(=O)CCCCCCC [Tricaprylin] |
| > 45.8 | > 45.8 | CN1CCCN=C1COC(=O)C(O)(c1ccccc1)C1CCCCC1 (stereo unspecified) [Oxyphencyclimine hydrochloride] |
| > 45.8 | > 45.8 | CCCCNC(=O)NS(=O)(=O)c1ccc(C)cc1 [Tolbutamide] |
| > 45.8 | > 45.8 | O=C(NC(Cc1cc(=O)[nH]c2ccccc12)C(=O)O)c1ccc(Cl)cc1 (stereo unspecified) [Rebamipide] |
| > 45.8 | > 45.8 | C[C@](N)(Cc1ccc(O)cc1)C(=O)O [Metyrosine] |
| > 45.8 | > 45.8 | CCOCC(O)COc1ccc(NC(=O)CC[S+](C)C)cc1 (stereo unspecified) [Suplatast tosylate] |
| > 45.8 | > 45.8 | CC(=O)O[C@H]1C[C@@H]2CC[C@@H]3[C@H](CC[C@@]4(C)[C@H]3C[C@H](N3CC[N+](C)(C)CC3)[C@@H]4OC(C)=O)[C@@]2(C)C[C@@H]1N1CC[N+](C)(C)CC1 [Pipecuronium bromide] |
| > 45.8 | > 45.8 | O=P(O)(O)OC(CO)CO [beta-Glycerol phosphate disodium salt pentahydrate] |
| > 45.8 | > 45.8 | C/C(=C\C(=O)OCCCCCCCCC(=O)O)C[C@@H]1OC[C@H](C[C@@H]2O[C@H]2[C@@H](C)[C@H](C)O)[C@@H](O)[C@H]1O [Mupirocin] |
| > 45.8 | > 45.8 | S=C1SCN(Cc2ccccc2)CN1Cc1ccccc1 [Sulbentine] |
| > 45.8 | > 45.8 | COc1cc2nc(N3CCN(C(=O)C4CCCO4)CC3)nc(N)c2cc1OC (stereo unspecified) [Terazosin hydrochloride] |
| > 45.8 | > 45.8 | O=C(O)/C=C(\CC(=O)O)C(=O)O [trans-Aconitic acid] |
